Assay results from article PMC6736568, “Discovery of Novel Anti-cryptosporidial Activities From Natural Products by in vitro High-Throughput Phenotypic Screening” (Frontiers in Microbiology, 2019).
Counter-ions that a name gives are not always drawn. Like-named read-outs stand apart in the source and are kept apart here. *1 amine or outer side, *2 acyl side, *3 side chain or, on linkers, in order; H or OH if unused. Where a SMILES comes first, the peptide text is derived from it. Bridges are numbered along the chain shown (N, C = ends). Roman numbers before positions name the chains, in order. [ ]: non-standard residue; d: D form. Actinocin(9to1) = Cc1c2oc3c(C)ccc(C(=O)[*:1])c3nc-2c(C(=O)[*:2])c(N)c1=O; NMeV = CN[C@H](C(=O)O)C(C)C; Sar = CNCC(=O)O

Assays:
[1] = tested on: Cryptosporidium parvum; assay: qRT-PCR assay of the growth of C. parvum in vitro in HCT-8 host cells (primary and secondary screening, EC50); type: cell-based; details: Cryptosporidium parvum; for inhibition at 10 µM / inhibition at 3.3 µM: HCT-8; for inhibition at 10 µM: primary screening at 10 uM, read-out: Inhibition (%); for inhibition at 3.3 µM: secondary screening at 3.3 uM, read-out: % Inhibition (3.3 uM); for EC50: growth of C. parvum in vitro, HCT-8 host cells, 44 h infection
[2] = tested on: HCT-8 cells; assay: In vitro cytotoxicity MTS assay on host cells; type: cell-based, human; details: 41 h
Protocol: The plates were measured for absorbance at 490 nm in 15 min intervals in a SmartReader 96 microplate reader (Accuris, Edison, NJ, United States). Cytotoxicity of a compound was quantified by calculating the half maximal toxic concentration on host cells (TC50). An in vitro safety interval (SI) was calculated by determining the ratio between TC50 and EC50 values (i.e., SI = TC50/EC50).

[3] = tested on: HCT-8 host cells (Hs18S)
[4] = in vitro
[5] = primary screening at 10 uM, treated vs control

Row | Structure (SMILES) | inhibition at 10 µM [1] | Hs18S ΔCT ([3]; human, 41 h, 10 μM) | cytotoxicity at 41 h, 10 µM ([4]; human) | Hs18S ΔCT [3, 5] | cytotoxicity at 10 µM [4] | other results
1 | COc1ccc2c(c1)OCC(Cc1ccc(OC)c(OC(C)=O)c1)C2=O (stereo not drawn) [Deoxysappanone B 7,3′-dimethyl ether acetate] | 87.4% | 0.24 | 15.5% | – | – | inhibition at 3.3 µM [1]: 71%; EC50 [1]: 1.19 µM; TC50 ([2]; HCT-8 cells, MTS): >100 µM
2 | Cc1cccc2c3c(ccc12)C1=C(C(=O)C3=O)[C@@H](C)CO1 [Dihydrotanshinone I] | 87% | 0.00 | 0.2% | – | – | inhibition at 3.3 µM [1]: 75%; EC50 [1]: 3.08 µM; TC50 ([2]; human): 25.0 µM
3 | Cc1c2oc3c(C)ccc(C(=O)N[C@@H]4C(=O)N[C@H](C(C)C)C(=O)N5CCC[C@H]5C(=O)N(C)CC(=O)N(C)[C@@H](C(C)C)C(=O)O[C@@H]4C)c3nc-2c(C(=O)N[C@@H]2C(=O)N[C@H](C(C)C)C(=O)N3CCC[C@H]3C(=O)N(C)CC(=O)N(C)[C@@H](C(C)C)C(=O)O[C@@H]2C)c(N)c1=O [Dactinomycin, reference compound] (I: T[dV]P[Sar][NMeV] / II: T[dV]P[Sar][NMeV]; ester I:1-I:C, II:1-II:C; linker I:N-II:N via Actinocin(9to1)) | 94.3% | – | – | 1.50 | 64.6% | inhibition at 3.3 µM [1]: 97%; EC50 [1]: 0.314 µM; TC50 ([2]; HCT-8 cells, MTS): 2.82 µM
4 | OC[C@@H](O)[C@@H](O)[C@H](O)[C@@H](O)CO [SORBITOL] | -33.8% | -0.18 | -13.2% | – | – | –
5 | CN1[C@@H]2CC[C@H]1C[C@@H](OC(=O)[C@H](CO)c1ccccc1)C2 [HYOSCYAMINE] | 36.2% | – | – | -0.12 | -8.9% | –
6 | C=CCc1ccc(O)c(OC)c1 [EUGENOL] | 3.09% | -0.36 | -28.5% | – | – | –
7 | c1cncc([C@@H]2CCCCN2)c1 [ANABASINE HYDROCHLORIDE] | 6.88% | – | – | -0.08 | -5.5% | –
8 | O=c1c(O)cccc2cc(O)c(O)c(O)c12 [PURPUROGALLIN] | -12.6% | -0.01 | -0.7% | – | – | –
9 | CC1(C)CC[C@]2(C)CC[C@]3(C)C(=CC[C@@H]4[C@@]5(C)CC[C@H](O)C(C)(C)[C@@H]5CC[C@]43C)[C@@H]2C1 [beta-AMYRIN] | -38.2% | – | – | -0.12 | -8.3% | –
10 | O=c1c(O)c(-c2ccc(O)c(O)c2)oc2cc(O)cc(O)c12 [QUERCETIN] | 78.4% | – | – | 0.34 | 21.1% | inhibition at 3.3 µM [1]: -27%
11 | CC(C)[C@@H](C)/C=C/[C@@H](C)[C@H]1CC[C@H]2C3=CC=C4C[C@@H](O)CC[C@]4(C)[C@H]3CC[C@]12C [ERGOSTEROL] | -29.6% | – | -1.9% | -0.03 | – | –
12 | COc1cc(-c2coc3cc(OCc4ccccc4)c(OC)c(O)c3c2=O)cc(OCc2ccccc2)c1OC [IRIGENIN, DIBENZYL ETHER] | -15.7% | 0.00 | 0% | – | – | –
13 | COc1ccc2c(c1)[nH]c1c(C)nccc12 [HARMINE] | 82.2% | – | – | 0.49 | 28.6% | inhibition at 3.3 µM [1]: -62%
14 | O=C(O)[C@@H](O)[C@H](O)[C@H](O)[C@@H](O)C(=O)O [MUCIC ACID] | -14.3% | -0.19 | -13.8% | – | – | –
15 | C=CCN1CC[C@]23c4c5ccc(O)c4O[C@H]2C(=O)CC[C@@]3(O)[C@H]1C5 [NALOXONE HYDROCHLORIDE] | 21.9% | – | – | 0.20 | 12.7% | –
16 | O=C1c2ccccc2C(=O)c2c1ccc(O)c2O [ALIZARIN] | -42.4% | – | – | -0.13 | -9.1% | –
17 | CC(C)c1ccc2c(c1)CC[C@H]1[C@](C)(C(N)=O)CCC[C@]21C [DEHYDROABIETAMIDE] | 8.3% | -0.01 | -0.7% | – | – | –
18 | C[C@H]1C(=O)O[C@@H]2CCN3CC=C(COC(=O)[C@](C)(O)[C@]1(C)O)[C@H]23 [MONOCROTALINE] | 12% | – | – | 0.14 | 9.5% | –
19 | CN1CCCCC1c1ccc(-c2cccnc2)nc1 (stereo not drawn) [ANABASAMINE HYDROCHLORIDE] | 8.75% | – | – | 0.40 | 24.3% | –
20 | Cc1cc(O)c2c(c1)C(=O)c1cccc(O)c1C2=O [CHRYSOPHANOL] | -71.6% | 0.17 | 11.4% | – | – | –
21 | COc1cc(OC)c2ccc(=O)oc2c1 [CITROPTEN] | -43.6% | 0.38 | 23.1% | – | – | –
22 | OC[C@H]1O[C@@H](Oc2cc(O)cc(/C=C/c3ccc(O)cc3)c2)[C@H](O)[C@@H](O)[C@@H]1O [PICEID] | 4.1% | -0.36 | -28.7% | – | – | –
23 | COc1ccc2c(c1OC)C(=O)O[C@@H]2[C@H]1c2c(cc3c(c2OC)OCO3)CCN1C [NOSCAPINE HYDROCHLORIDE] | -51.6% | 0.30 | 18.9% | – | – | –

Row | Structure (SMILES) | inhibition at 10 µM [1] | Hs18S ΔCT ([3]; human, 41 h, 10 μM) | cytotoxicity at 41 h, 10 µM ([4]; human) | Hs18S ΔCT [3, 5] | cytotoxicity at 10 µM [4] | other results
24 | COc1c2c(cc3c1OCO3)CC[N+](C)=C2 [COTARNINE CHLORIDE] | -14.5% | -0.20 | -15.2% | – | – | –
25 | COc1c(O)cc2c(c1O)[C@@H]1O[C@H](CO)[C@@H](O)[C@H](O)[C@H]1OC2=O [BERGENIN] | 36% | 0.38 | 23.1% | – | – | –
26 | Oc1ccc([C@H]2Oc3cc(O)cc(O)c3C[C@H]2O)cc1 [EPIAFZELECHIN (2R,3R)(-)] | -2.1% | -0.14 | -10.2% | – | – | –
27 | OC[C@@H](O)[C@@H](O)[C@@H](O)CO [ADONITOL] | 6.19% | 0.26 | 16.4% | – | – | –
28 | COc1ccc(-c2cc(=O)c3c(O)cc(OC)cc3o2)cc1 [APIGENIN DIMETHYL ETHER] | -37.8% | – | – | 0.17 | 11.3% | –
29 | CC1=C(/C=C/C(C)=C/C=C/C(C)=C/CO)C(C)(C)CCC1 [RETINOL] | 6.73% | 0.09 | 6.3% | – | – | –
30 | C[C@]12CCC(=O)C=C1CC[C@@H]1[C@@H]2[C@@H](O)C[C@@]2(C)[C@H]1CC[C@]2(O)C(=O)CO [HYDROCORTISONE] | 21.1% | -0.47 | -38.1% | – | – | –
31 | O=C1C=CC(=O)c2c(O)cccc21 [JUGLONE] | -17.7% | – | – | – | 11.2% | Hs18S ΔCT [3]: 0.17
32 | O=C1C=C2CC3(O)COc4cc(O)ccc4C3=C2C=C1O (stereo not drawn) [BRAZILEIN] | -12.2% | 0.03 | 2.2% | – | – | –
33 | C[C@H](CCC(=O)NCC(=O)O)[C@H]1CC[C@H]2[C@@H]3[C@H](O)C[C@@H]4C[C@H](O)CC[C@]4(C)[C@H]3C[C@H](O)[C@]12C [GLYCOCHOLIC ACID] | -58.4% | -0.31 | – | – | -23.7% | –
34 | OCC(O)C(O)C(O)C(O)C(O)CO (stereo not drawn) [PERSEITOL] | 11.3% | -0.23 | -17.1% | – | – | –
35 | Nc1ncnc2c1ncn2[C@@H]1O[C@H](CO)[C@@H](O)[C@H]1O [ADENOSINE] | -13.4% | 0.02 | 1.5% | – | – | –
36 | CC(=O)O[C@@H]1C[C@H]2C(C)(C)C(=O)C=C[C@]2(C)[C@H]2CC[C@@]3(C)[C@H](c4ccoc4)OC(=O)[C@H]4O[C@]43[C@@]21C [GEDUNIN] | 6.58% | 0.02 | 1.2% | – | – | –
37 | O=C(O)CCC1NCC2CC1CN1CCCCC21 (stereo not drawn) [LUPANYL ACID HYDROCHLORIDE] | 5.4% | 0.09 | 6% | – | – | –
38 | NCCCCNCCCN [SPERMIDINE TRIHYDROCHLORIDE] | 23.9% | -0.63 | -54.4% | – | – | –
39 | Nc1nc(=O)c2[nH]c(=O)cnc2[nH]1 [XANTHOPTERIN] | 22.7% | 0.47 | 27.9% | – | – | –
40 | Cc1c[nH]cn1 [4-METHYLIMIDAZOLE] | -27.8% | – | – | 0.18 | 11.5% | –
41 | CC(=O)c1c(O)c(C)c(O)c2c1OC1=CC(=O)C(C(C)=O)C(=O)C12C (stereo not drawn) [USNIC ACID] | 18.8% | – | – | -0.31 | -23.9% | –
42 | C[C@@H]1CC[C@H]2[C@@H](C)C(=O)O[C@@H]3O[C@@]4(C)CC[C@@H]1[C@]32OO4 [ARTEMISININ] | 16.7% | 0.00 | 0% | – | – | –
43 | C/C=C1\[C@H]2C=C(C)C[C@]1(N)c1ccc(=O)[nH]c1C2 [HUPERZINE A] | 37.6% | – | – | 0.19 | 12.4% | –
44 | CCOc1ccc(C(=O)c2ccc(O)c(O)c2O)cc1 [2,3,4-TRIHYDROXY-4'-ETHOXYBENZOPHENONE] | -43.7% | 0.22 | 14.4% | – | – | –
45 | CC[C@H]1CN2CCc3cc(OC)c(OC)cc3[C@@H]2C[C@@H]1C[C@H]1NCCc2cc(OC)c(OC)cc21 [EMETINE DIHYDROCHLORIDE] | 97.3% | – | – | 1.41 | – | inhibition at 3.3 µM [1]: 95%; cytotoxicity at 41 h, 10 µM [4]: 62.4%
